Marks after values point to notes of the source that are not given here.
Key:
BSA/MGO fluorescent AGEs = test: Inhibition of AGE formation, intermediate stage of glycation (BSA/MGO); type: biochemical, bovine; details: BSA/MGO model
Experimental: (§1) The BSA-MGO assay was based on those described before, with some modifications. This experiment is based on the formation of fluorescent AGEs from the middle stage of protein glycation. MGO (1.5 mM) and BSA (3 mg/mL) were dissolved separately in 0.05 M phosphate buffer (pH 7.4) containing NaCl (100 mM) and NaN3 (0.02% w/v). Then, 300 μL of MGO was incubated with samples at different concentrations (dissolved in a buffer containing 60% ethanol) for an hour at 37 °C, in the dark, with constant stirring. After BSA (3 mg/mL) was added to the reaction mixture and incubation time was extended to 48 h at 37 °C in darkness. The rest of the procedure was the same as that for the BSA-glucose/fructose model that is described above. The percentage of the AGE inhibition and IC50 was calculated as described in Section 3.3.1.

[1] = test system: high-fat diet-fed C57BL/6J mice; parameters: method as in PMID 25832644; details: PIC supplementation; cited from earlier work
AML-12 cells = test: Intracellular ROS level (DCFH-DA) after NNKOAc; type: cell-based, mouse; details: 50 µg/mL, 3 h pretreatment; NNKOAc 100 µM
Experimental: (§2) The generation of intracellular ROS in BEAS-2B, AML-12, and MCF-10A cells after treatments was measured as described previously. Briefly, DCFH-DA dye was readily taken up by cells and is subsequently hydrolyzed to DCFH, which can be oxidized to a measurable fluorescent product dichlorofluorescein (DCF). […] Cells with DMSO media (0.5%) served as the vehicle control. After treatments, DCFH-DA was added to the cell culture plates at a final concentration of 5 μM followed by 40 min incubation at dark. The fluorescence […] was then measured at an excitation and emission wavelength of 485 nm and 535 nm, using a microplate reader (Infinite® 200 PRO, TECAN, Männedorf, Switzerland).
(§3) BEAS-2B, MCF10-A, and AML-12, cells were purchased from the American Tissue Type Culture Collection (ATCC; CRL-9609, CRL-10317, and CRL-2254) and cultured with a specific medium. BEAS-2B cells were cultured with LHC-9 media at 37 °C in an incubator with 5% CO2. Culture flasks (polystyrene T75) were pre-coated with a mixture of 0.01 mg/mL fibronectin, 0.03 mg/mL bovine collagen type I, and 0.01 mg/mL bovine serum albumin were dissolved in LHC-9 medium overnight. […]

BEAS-2B cells [2] = test: MTS cell viability assay; type: cell-based, human; details: 100 µg/mL (409 µM); 24 h
Experimental: BEAS-2B, MCF10-A, and AML-12, cells were purchased from the American Tissue Type Culture Collection (ATCC; CRL-9609, CRL-10317, and CRL-2254) and cultured with a specific medium. BEAS-2B cells were cultured with LHC-9 media at 37 °C in an incubator with 5% CO2. […] Cells were grown to around 70% confluence on the culture flask, and passages (<10) were employed for all experimental conditions. MTS Cell Titer 96™ aqueous cell proliferation assay was used to determine cell viability. […] For that, 1 × 10^4 cells were plated on a 96-well plate with a growth medium of 100 μL/well. […] Fifteen microliters of MTS reagent (with PMS) was then added to each well and incubated for 3 h in the dark. Absorbance was recorded at 490 nm using a microplate reader (Infinite® 200 PRO, TECAN, Männedorf, Switzerland). For each experiment, cells with DMSO media served as control, and cells with only culture medium and MTS reagent served as the blank.

[3] = test system: amyloid fibrils of glycated BSA (BSA/MGO); test: Inhibition of amyloid fibril formation, ThT assay (BSA/MGO); type: biochemical, bovine; details: highest obtained, PESE 200, PIC 200, AMG 100 µg/mL
Experimental: as §1
The fibrillar state of modified BSA was determined with ThT as previously described. ThT is a probe that binds directly to amyloid fibrils to give a strong fluorescent signal and thus can be used to quantify β-amyloid due to protein glycation. Basically, 30 μL of glycated protein (approx. 1 mg/mL), obtained as described previously, was mixed with 100 μL ThT reagent (10 μM ThT in 100 mM phosphate buffer, pH 7.0), and fluorescence was collected at excitation/emission wavelengths of 450/490 nm in a microplate reader (Infinite® 200 PRO, TECAN, Männedorf, Switzerland). […]

[4] = biological target: T1, DPP-4 human recombinant enzyme (Homo sapiens, UniProt P27487); test: DPP-4 inhibition assay; type: biochemical; details: mean ± SD, triplicates
T1 construct: purchased Sigma-Aldrich (Oakville, ON, Canada)
Experimental: The DPP-4 inhibition assay was performed according to an established method. […] The reaction mixture was incubated for 30 min in the dark at 37 °C. Then, the fluorescent product was recorded at excitation/emission wavelengths of 350/450 nm using the microplate reader (Infinite® 200 PRO, TECAN, Männedorf, Switzerland). […] The percentage of the DPP-4 inhibition and IC50 was calculated as described in Section 3.3.1.

BEAS-2B cells [5] = test: Intracellular ROS level (DCFH-DA) after NNKOAc; type: cell-based, human
Experimental: as §2, §3

[6] = DPPH radical scavenging assay
Experimental: After incubation in the dark for 30 min, the absorbance was read at 516 nm, using a UV–Vis spectrophotometer (Agilent Technologies, Santa Clara, CA, USA). Results were expressed as the half-maximal inhibitory concentration (IC50) in μg/mL.

[7] = Superoxide anion radical scavenging activity
Experimental: The potential of the samples to scavenger superoxide anion radicals was determined, with minor modifications. […] Phosphate buffer (19 mM, pH 7.4) was used to dissolve NADH, NBT, and PMS. QCT was used as means of comparison. The experiment was conducted at 37 °C in a microplate reader (Infinite® 200 PRO, TECAN, Männedorf, Switzerland), and the absorbance was measured at 560 nm. The results were expressed as IC50 of extract solution in μg/mL.

T1 sequence (P27487 whole entry): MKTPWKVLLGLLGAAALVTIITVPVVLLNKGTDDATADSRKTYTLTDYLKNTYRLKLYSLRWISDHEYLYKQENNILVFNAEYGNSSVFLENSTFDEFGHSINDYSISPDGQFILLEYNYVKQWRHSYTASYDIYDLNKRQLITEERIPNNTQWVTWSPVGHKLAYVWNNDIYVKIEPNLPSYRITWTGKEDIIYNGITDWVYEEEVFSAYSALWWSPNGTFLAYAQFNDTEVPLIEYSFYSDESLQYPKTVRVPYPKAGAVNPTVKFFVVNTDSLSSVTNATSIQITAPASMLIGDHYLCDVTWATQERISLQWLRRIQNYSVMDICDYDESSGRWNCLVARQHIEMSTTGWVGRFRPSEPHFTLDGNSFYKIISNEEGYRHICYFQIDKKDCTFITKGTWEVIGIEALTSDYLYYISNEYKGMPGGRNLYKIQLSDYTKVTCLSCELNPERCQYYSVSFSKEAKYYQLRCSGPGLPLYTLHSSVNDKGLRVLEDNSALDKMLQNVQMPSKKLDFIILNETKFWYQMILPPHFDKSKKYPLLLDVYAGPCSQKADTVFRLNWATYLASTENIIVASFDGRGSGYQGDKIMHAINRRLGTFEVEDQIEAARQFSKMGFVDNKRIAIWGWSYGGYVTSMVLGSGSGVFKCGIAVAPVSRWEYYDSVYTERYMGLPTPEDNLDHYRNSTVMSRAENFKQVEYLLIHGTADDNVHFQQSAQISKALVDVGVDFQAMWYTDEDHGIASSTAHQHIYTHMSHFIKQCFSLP
Experimental for HOCl scavenging activity: Briefly, a freshly prepared HOCl solution, by adjusting the pH of a 1% solution of NaOCl to 6.2 with dropwise addition of diluted H2SO4, was diluted to 30 µM, using 100 mM phosphate buffer pH 7.4. […] QCT was used as means of comparison. Fluorescence assays were performed in a microplate reader (Infinite® 200 PRO, TECAN, Männedorf, Switzerland), at 37 °C, at wavelengths of 505 ± 10 nm and 530 ± 10 nm, for excitation and emission, respectively. The results were expressed as IC50 (μg/mL) of extract solution.

## Oc1cc(O)cc(/C=C/c2ccc(O)c(O)c2)c1 [PIC, 3,3′,4′,5-trans-tetrahydroxystilbene]
BSA/MGO fluorescent AGEs
  Antiglycation IC50, MGO: 67.4 ± 4.6 ^b μg/mL
HOCl scavenging activity
  HOCl IC50: 1.2 ± 0.5 µg/mL
[1]
  Fasting blood glucose, high-fat diet-fed C57BL/6J mice: reduced fasting blood glucose
AML-12 cells
  Protection from oxidative stress (ROS) caused by the carcinogen, AML-12: able to protect
BEAS-2B cells [2]
  Reduction of cell viability of BEAS-2B cells: approximately 50%
[3]
  Inhibition of Amyloid Fibrils (%), MGO: 100 ± 3.8 ^a %
[4]
  IC50: 4660 µM
BEAS-2B cells [5]; 50 µg/mL, 3 h pretreatment, NNKOAc 100 µM
  Protection from oxidative stress (ROS) caused by the carcinogen, BEAS-2B: able to protect
BEAS-2B cells [5]; NNKOAc at 100 µM, abstract, cell line and concentration not specified
  Protection of cultured human cells from oxidative stress caused by NNKOAc: capable of protecting
[6]; 30 min
  DPPH• IC50: 6.3 ± 1.3 µg/mL
[6]; data in parenthesis are in μM
  IC50: 25.8 µM
[7]
  O2•− IC50: 7.3 ± 0.02 µg/mL
[7]; data in parenthesis are in μM, read-out: O2•− IC50 (in parenthesis) (converted)
  IC50: 30.1 µM

Source: article PMC9267955, “Antidiabetic, Antiglycation, and Antioxidant Activities of Ethanolic Seed Extract of Passiflora edulis and Piceatannol In Vitro” (Molecules, 2022)
